Where a name gives a salt, the structure may show the parent alone.
biological target: T1, PDE7 (type VII phosphodiesterase) (Homo sapiens, UniProt Q13946); assay: PDE7 inhibiting activity (3H-cAMP hydrolysis, active fraction from MOLT-4 cells); format: biochemical; conditions: PDE7 fraction from MOLT-4 cells, 0.064 μM cAMP, 10 μM rolipram present, 2 hours at 25° C.; read-out: IC50 values for phosphodiesterase inhibiting activities (PDE7)
T1 construct: endogenous in cells; host or cells: MOLT-4 (ATCC CRL-1582), soluble fraction, HiTrapQ anion-exchange fraction
Method: To evaluate the compounds of the present invention for the ability to suppress PDE7 (type VII phosphodiesterase), the method of Biochemical Pharmacol. 48(6), 1219-1223 (1994) was partially modified to perform the following assay:
1) PDE7 (type VII phosphodiesterase) active fraction was obtained. That is, human acute lymphoblastoid lymphoma T cell strain MOLT-4 (purchasable from ATCC under ATCC No. CRL-1582) was cultured in RPMI1640 medium containing 10% fetal bovine serum to obtain 5×10^8 MOLT4 cells. The cells were harvested by centrifugation, and suspended in 10 ml of buffer A (25 mM tris-HCl, 5 mM 2-mercaptoethanol, 2 mM benzamidine, 2 mM EDTA, 0.1 mM 4-(2-aminoethyl)benzenesulfonyl hydrochloride, pH 7=7.5). The cells were homogenized in a Polytoron homogenizer, and centrifuged (4° C., 25,000 G, 10 min). The supernatant was further ultracentrifuged (4° C., 100,000 G, 60 min), and the resulting supernatant was filtered through a 0.2 μm filter to obtain a soluble fraction.
2) HiTrapQ column (5 ml×2) equilibrated with buffer A was charged with the resulting soluble fraction. Phosphodiesterase was eluted using 300 ml of buffer A containing a linear gradient solution of 0 to 0.8M sodium chloride to collect sixty 5 ml fractions. Each fraction was tested for cAMP metabolizing phosphodiesterase activity.
3) The test compounds at desired concentrations were each reacted for 2 hours at 25° C. in a reactant mixture containing 20 mM tris-HCl (pH 7.5), 1 mM MgCl2, 100 μM EDTA, 330 μg/ml bovine serum albumin, 4 μg/ml 5′-nucleotidase, 0.1 μCi^3H-cAMP (0.064 μM cAMP), 10 μM rolipram, and the type VII phosphodiesterase stored solution. QAE-Sephadex suspended in 10 mM HEPES-Na (pH 7.0) was added to the reaction mixture, and the mixture was allowed to stand for 5 minutes. Then, the supernatant was recovered, and QAE-Sephadex was further added, followed by allowing the mixture to stand for 5 minutes. Then, the resulting supernatant was measure for radioactivity.
4) IC50, as the concentration of the test compound that inhibited 50% of the metabolic activity of PDE7, was calculated for each of the compounds.

T1 sequence (Q13946 whole entry): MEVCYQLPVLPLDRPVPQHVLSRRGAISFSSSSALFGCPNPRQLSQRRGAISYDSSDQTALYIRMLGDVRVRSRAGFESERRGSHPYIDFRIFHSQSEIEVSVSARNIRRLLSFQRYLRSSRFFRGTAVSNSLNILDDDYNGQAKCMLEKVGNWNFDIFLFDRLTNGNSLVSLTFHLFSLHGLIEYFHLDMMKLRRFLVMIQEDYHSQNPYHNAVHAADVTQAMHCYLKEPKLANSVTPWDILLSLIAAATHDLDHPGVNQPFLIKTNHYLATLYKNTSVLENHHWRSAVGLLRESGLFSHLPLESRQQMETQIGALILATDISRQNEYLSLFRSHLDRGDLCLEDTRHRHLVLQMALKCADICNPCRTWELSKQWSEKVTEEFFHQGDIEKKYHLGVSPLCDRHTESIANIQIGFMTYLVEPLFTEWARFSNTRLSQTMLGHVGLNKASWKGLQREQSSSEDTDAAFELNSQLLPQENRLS

| SMILES | IC50 [µM] |
| --- | --- |
| COc1cc(S(=O)(=O)N2CCOCC2)ccc1-c1nc2c(c(C3CCCCC3)nn2C)c(=O)[nH]1 [Example 51, 3-Cyclohexyl-6-[2-methoxy-4-(4-morpholinylsulfonyl)phenyl]-1-methyl-1,5-dihydro-4H-pyrazolo[3,4-d]pyrimidin-4-one] | ≤ 0.01 |
| COc1cc(N2CCNCC2)c(F)cc1-c1nc2c(c(C3CCCCC3)nn2C)c(=O)[nH]1 [Example 81, monomethanesulfonate] | ≤ 0.01 |
| CN1CCN(c2ccc(-c3nc4c(c(C5CCCCC5)nn4C)c(=O)[nH]3)c(OC(F)F)c2)CC1 [Example 139, 3-Cyclohexyl-6-[2-(difluoromethoxy)-4-(4-methyl-1-piperazinyl)phenyl]-1-methyl-1,5-dihydro-4H-pyrazolo[3,4-d]pyrimidin-4-one monomethanesulfonate] | ≤ 1 |
| COc1cc(N2CCC(N(C)C)CC2)ccc1-c1nc2c(c(C3CCCCC3)nn2C)c(=O)[nH]1 [Example 154, 3-Cyclohexyl-6-{4-[4-(dimethylamino)-1-piperidinyl]-2-methoxyphenyl}-1-methyl-1,5-dihydro-4H-pyrazolo[3,4-d]pyrimidin-4-one monomethanesulfonate] | ≤ 0.01 |
| COc1cc(N2CCCN(C)CC2)ccc1-c1nc2c(c(C3CCCCC3)nn2C)c(=O)[nH]1 [Example 136, 3-Cyclohexyl-6-[2-methoxy-4-(4-methyl-1,4-diazepan-1-yl)phenyl]-1-methyl-1,5-dihydro-4H-pyrazolo[3,4-d]pyrimidin-4-one monomethanesulfonate] | ≤ 0.01 |
| COc1cc(NC(C)=O)ccc1-c1nc2c(c(C3CCCCC3)nn2C)c(=O)[nH]1 [Example 45, N-[4-(3-cyclohexyl-1-methyl-4-oxo-4,5-dihydro-1H-pyrazolo[3,4-d]pyrimidin-6-yl)-3-methoxyphenyl]acetamide] | ≤ 1 |
| COc1cc(N2CCCN(C(C)=O)CC2)ccc1-c1nc2c(C)nn(C3CCCCC3)c2c(=O)[nH]1 [Example 126, 5-[4-(4-Acetyl-1,4-diazepan-1-yl)-2-methoxyphenyl]-1-cyclohexyl-3-methyl-1,6-dihydro-7H-pyrazolo[4,3-d]pyrimidin-7-one] | ≤ 1 |
| CCN(CCO)c1ccc(-c2nc3c(C)nn(C4CCCCC4)c3c(=O)[nH]2)c(OC)c1 [Example 115, 1-Cyclohexyl-5-{4-[(2-hydroxyethyl)(ethyl)amino]-2-methoxyphenyl}-3-methyl-1,6-dihydro-7H-pyrazolo[4,3-d]pyrimidin-7-one monohydrochloride] | ≤ 1 |
| COc1cc(S(=O)(=O)N2CCC(C(=O)O)CC2)ccc1-c1nc2c(c(C3CCCCC3)nn2C)c(=O)[nH]1 [Example 54, 1-{[4-(3-Cyclohexyl-1-methyl-4-oxo-4,5-dihydro-1H-pyrazolo[3,4-d]pyrimidin-6-yl)-3-methoxyphenyl]sulfonyl}-4-piperidinecarboxylic acid] | ≤ 1 |
| COCCN(C)c1ccc(-c2nc3c(c(C4CCCCC4)nn3C)c(=O)[nH]2)c(OC)c1 [Example 73, 3-Cyclohexyl-6-{2-methoxy-4-[(2-methoxyethyl)(methyl)amino]phenyl}-1-methyl-1,5-dihydro-4H-pyrazolo[3,4-d]pyrimidin-4-one] | ≤ 0.01 |
| COc1ccc(F)cc1-c1nc2c(C)nn(C3CCCCC3)c2c(=O)[nH]1 [Example 18, 1-Cyclohexyl-5-(5-fluoro-2-methoxyphenyl)-3-methyl-1,6-dihydro-7H-pyrazolo[4,3-d]pyrimidin-7-one] | ≤ 1 |
| CCOc1cc(N2CCCN(C)CC2)ccc1-c1nc2c(C)nn(C3CCCCC3)c2c(=O)[nH]1 [Example 130, 1-Cyclohexyl-5-[4-(4-methyl-1,4-diazepan-1-yl)-2-ethoxyphenyl]-3-methyl-1,6-dihydro-7H-pyrazolo[4,3-d]pyrimidin-7-one] | ≤ 1 |
| COc1cc(C(=O)N2CCC(OC)CC2)ccc1-c1nc2c(c(C3CCCCC3)nn2C)c(=O)[nH]1 [Example 70, 3-Cyclohexyl-6-{2-methoxy-4-[(4-methoxy-1-piperidinyl)carbonyl]phenyl}-1-methyl-1,5-dihydro-4H-pyrazolo[3,4-d]pyrimidin-4-one] | ≤ 1 |
| COc1cc(OC2CCN(C)CC2)ccc1-c1nc2c(c(C3CCCCC3)nn2C)c(=O)[nH]1 [Example 42, 3-Cyclohexyl-6-{2-methoxy-4-[(-methyl-4-piperidinyl)oxy]phenyl}-1-methyl-1,5-dihydro-4H-pyrazolo[3,4-d]pyrimidin-4-one monomaleate] | ≤ 1 |
| Cc1nn(C2CCCCC2)c2c(=O)[nH]c(-c3ccccn3)nc12 [Example 6, 1-Cyclohexyl-3-methyl-5-(2-pyridinyl)-1,6-dihydro-7H-pyrazolo[4,3-d]pyrimidin-7-one] | ≤ 1 |
| COc1cc(N)ccc1-c1nc2c(c(C3CCCCC3)nn2C)c(=O)[nH]1 [Example 44, 6-(4-Amino-2-methoxyphenyl)-3-cyclohexyl-1-methyl-1,5-dihydro-4H-pyrazolo[3,4-d]pyrimidin-4-one] | ≤ 0.01 |
| COc1cc(N2CCC(N(C)C(C)=O)CC2)ccc1-c1nc2c(C)nn(C3CCCCC3)c2c(=O)[nH]1 [Example 119, N-{1-[4-(1-cyclohexyl-3-methyl-7-oxo-6,7-dihydro-1H-pyrazolo[4,3-d]pyrimidin-5-yl)-3-methoxyphenyl]-4-piperidiny}-N-methylacetamide] | ≤ 1 |
| CC(=O)Nc1ccc(-c2nc3c(C)nn(C4CCCCC4)c3c(=O)[nH]2)nc1 [Example 12, N-[6-(1-cyclohexyl-3-methyl-7-oxo-1H-pyrazolo[4,3-d]pyrimidin-5-yl)-3-pyridinyl]acetamide] | ≤ 1 |

Other lines, results leading:

| IC50 [µM] | SMILES |
| --- | --- |
| ≤ 0.01 | COc1cc(N2CCS(=O)(=O)CC2)ccc1-c1nc2c(c(C3CCCCC3)nn2C)c(=O)[nH]1 [Example 192, 3-Cyclohexyl-6-[4-(1,1-dioxido-4-thiomorpholinyl)-2-methoxyphenyl]-1-methyl-1,5-dihydro-4H-pyrazolo[3,4-d]pyrimidin-4-one] |
| ≤ 0.01 | CCOc1cc(N2CCCNCC2)ccc1-c1nc2c(C)nn(C3CCCCC3)c2c(=O)[nH]1 [Example 262, 1-Cyclohexyl-5-[4-(1,4-diazepan-1-yl)-2-ethoxyphenyl]-3-methyl-1,6-dihydro-7H-pyrazolo[4,3-d]pyrimidin-7-one] |
| ≤ 1 | COc1cc(N2CCCNCC2)c(F)cc1-c1nc2c(C)nn(C3CCCCC3)c2c(=O)[nH]1 [Example 266, 1-Cyclohexyl-5-[4-(1,4-diazepan-1-yl)-5-fluoro-2-methoxyphenyl]-3-methyl-1,6-dihydro-7H-pyrazolo[4,3-d]pyrimidin-7-one] |
| ≤ 1 | COc1cc(S(=O)(=O)N2CCC(N)CC2)ccc1-c1nc2c(c(C3CCCCC3)nn2C)c(=O)[nH]1 [Example 175, 6-{4-[(4-Amino-1-piperidinyl)sulfonyl]-2-methoxyphenyl}-3-cyclohexyl-1-methyl-1,5-dihydro-4H-pyrazolo[3,4-d]pyrimidin-4-one monomethanesulfonate] |
| ≤ 1 | COc1cc(S(=O)(=O)N(C)CCO)ccc1-c1nc2c(C)nn(C3CCCCC3)c2c(=O)[nH]1 [Example 213, 4-(1-Cyclohexyl-3-methyl-7-oxo-6,7-dihydro-1H-pyrazolo[4,3-d]pyrimidin-5-yl)-N-(2-hydroxyethyl)-3-methoxy-N-methylbenzenesulfonamide] |
| ≤ 1 | CNC1CCN(Cc2ccc(-c3nc4c(C)nn(C5CCCCC5)c4c(=O)[nH]3)c(OC)c2)CC1 [Example 241, 1-Cyclohexyl-5-(2-methoxy-4-{[4-(methylamino)-1-piperidinyl]methyl}phenyl)-3-methyl-1,6-dihydro-7H-pyrazolo[4,3-d]pyrimidin-7-one] |
| ≤ 1 | COc1cc(S(=O)(=O)NCCN(C)C)ccc1-c1nc2c(C)nn(C3CCCCC3)c2c(=O)[nH]1 [Example 211, 4-(1-Cyclohexyl-3-methyl-7-oxo-6,7-dihydro-1H-pyrazolo[4,3-d]pyrimidin-5-yl)-N-[2-(dimethylamino)ethyl]-3-methoxybenzenesulfonamide] |
| ≤ 1 | CNCCNS(=O)(=O)c1ccc(-c2nc3c(C)nn(C4CCCCC4)c3c(=O)[nH]2)c(OC)c1 [Example 210-2, 4-(1-Cyclohexyl-3-methyl-7-oxo-6,7-dihydro-1H-pyrazolo[4,3-d]pyrimidin-5-yl)-3-methoxy-N-[2-(methylamino)ethyl]benzenesulfonamide] |
| ≤ 0.01 | COc1cc(N2CCC(N)CC2)ccc1-c1nc2c(c(C3CCCCC3)nn2C)c(=O)[nH]1 [Example 185, 6-[4-(4-Amino-1-piperidinyl)-2-methoxyphenyl]-3-cyclohexyl-1-methyl-1,5-dihydro-4H-pyrazolo[3,4-d]pyrimidin-4-one monomethanesulfonate] |
